Source: patent US10092493B2, “Composition of skin external application for anti-aging” (AMOREPACIFIC CORPORATION, priority 2005, dated 2018)

Legend:
MMP-2 = experiment: Inhibition of MMP-2 biosynthesis after UV irradiation (gelatin zymography); type: cell-based; conditions: human keratinocytes, UV-B 30 mJ/cm^2, 10 ppm test substance, 2 days; UV control = 100
Procedure: (§1) After 24 hours, the plate was irradiated by UV-B at 30 mJ/cm^2. The media were exchanged with new medium containing 10 ppm of each test substance. After 2 days of cultivation, each supernatant was harvested and subjected to the zymography using gelatine gel to obtain produced MMP-2 and MMP-9, quantities of which were then measured by a densitometer.

MMP-9 = experiment: Inhibition of MMP-9 biosynthesis after UV irradiation (gelatin zymography); type: cell-based; conditions: human keratinocytes, UV-B 30 mJ/cm^2, 10 ppm test substance, 2 days; UV control = 100
Procedure: as §1

type IV collagen = experiment: Biosynthesis of type IV collagen in keratinocytes (Dot Blot); type: cell-based; conditions: human keratinocytes, 10 ppm, 24 hours; control = 100
Procedure: The media were exchanged with new medium containing 10 ppm of each test substance. After 24 hours of cultivation, each supernatant was harvested and subjected to the Dot Blot method to measure the amount of produced type IV collagen.

type VII collagen = experiment: Biosynthesis of type VII collagen in fibroblasts (Dot Blot); type: cell-based; conditions: human fibroblasts, 10 ppm, 24 hours; control = 100
Procedure: The media were exchanged with new medium containing 10 ppm of each test substance. After 24 hours of cultivation, each supernatant was harvested and subjected to the Dot Blot method to measure the amount of produced type VII collagen.

laminin 10/11 = experiment: Biosynthesis of laminin 10/11 in keratinocytes (Western Blot); type: cell-based; conditions: human keratinocytes, 10 ppm, 24 hours; control = 100
Procedure: Human keratinocytes were cultured in a 24-well plate type incubator at a concentration of 5×10^4. The media were exchanged with new medium containing 10 ppm of each test substance. After 24 hours of cultivation, each supernatant was harvested and subjected to the Western Blot method to measure the amount of produced laminin 10/11.

pro-collagen = experiment: Biosynthesis of collagen (pro-collagen ELISA) in fibroblasts; type: cell-based, Human; conditions: 48 hours, un-treated control = 100
Procedure: Human fibroblasts were cultured in a 48-well plate type incubator at a concentration of 10^4. The media were exchanged with new medium (theanine: 1, 10, 100 um) containing each test substance of Table 7 at a concentration of 0.001 μM, 0.01 μM, 0.1 μM, 0.5 μM and 2 μM. After 48 hours of cultivation, each supernatant was harvested and subjected to ELISA (Takara MK101) to measure the amount of produced pro-collagen.
Also, in order to examine the synergic effect of theanine on collagen biosynthesis, theanine 10 μM was added to catechin at different 4 concentrations and the result is shown in Table 8.

[1] = molecular target: T1, PPAR-α (Peroxisome Proliferator Activated Receptor-alpha) (Homo sapiens, UniProt Q07869); experiment: Activation of PPAR-α, luciferase reporter in CV-1 cells; type: cell-based; conditions: 24 hours, negative control and non-treated group = 1.0
T1 construct: expressed in transfected cells; host or cells: CV-1 monkey kidney epithelial cells (ATCC CCL 70)
T1 sequence (Q07869 1-468): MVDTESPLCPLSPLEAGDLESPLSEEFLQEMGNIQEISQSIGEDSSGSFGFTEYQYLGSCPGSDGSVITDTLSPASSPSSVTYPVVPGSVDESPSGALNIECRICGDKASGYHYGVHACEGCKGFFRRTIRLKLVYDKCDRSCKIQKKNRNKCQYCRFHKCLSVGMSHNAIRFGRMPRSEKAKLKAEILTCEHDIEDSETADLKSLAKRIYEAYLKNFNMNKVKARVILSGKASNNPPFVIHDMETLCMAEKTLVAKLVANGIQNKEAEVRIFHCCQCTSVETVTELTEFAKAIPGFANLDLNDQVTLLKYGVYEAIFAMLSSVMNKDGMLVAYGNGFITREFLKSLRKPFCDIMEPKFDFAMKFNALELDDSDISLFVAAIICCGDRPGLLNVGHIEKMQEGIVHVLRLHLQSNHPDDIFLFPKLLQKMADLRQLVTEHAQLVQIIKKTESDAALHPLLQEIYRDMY
Procedure: Monkey kidney epithelial cell line CV-1 (ATCC CCL 70) was subcultured in a DMEM medium containing 10% fetal bovine serum treated with charcol/dextran, which was a phenol red-free medium to remove the effect by estrogen of phenol red.
CV-1 cells were distributed in a 24-well plate type incubator at a concentration of 5×10^4. After 24 hours cultivation, the 3 different plasmids were transient transfected. After 24 hours cultivation, the plate was washed with 1×PBS (Phosphate Buffered Saline) and treated with ligand candidates at various concentrations. After 24 hours cultivation, the plate was washed with 1×PBS and the cells were lyzed with 1×PLB (Passive Lysis Buffer) and measured for luciferase activity using Dual-Luciferase® Reporter Assay System kit.

[2] = tested on: Tumor Necrosis Factor alpha (TNF-α); experiment: Inhibition of TNF-α biosynthesis after UV irradiation (ELISA); type: cell-based; conditions: human keratinocytes, UV-B 30 mJ/cm^2, 10 μM (10 ppm of extract), 6 to 24 hours; UV control = 100
Procedure: Human keratinocytes were cultured in a 12-well plate type incubator at a concentration of 10^4. The plate was irradiated by UV-B at 30 mJ/cm^2. The media were exchanged with new medium containing 10 μM of each test substance (10 ppm of extract). After 6 to 24 hours of cultivation, the cells were harvested and subjected to ELISA (Pharmingen 555212) to determine the amount of produced tumor necrosis factor α (TNF-α). As the positive control, Wy-14,643 was used.

[3] = tested on: Type I Collagenase (MMP-1); experiment: Inhibition of type I collagenase (MMP-1) biosynthesis after UV-A irradiation, test substances (ELISA); type: cell-based; conditions: new born human fibroblasts, UV-A 15 J/cm^2, 10 μM or 10 ppm, UV negative control = 100; for Type I collagenase biosynthesis (%), UV-A + TNF-α treated group: plus TNF-α 10 ng/ml
Procedure: To describe the experiment method in detail, human fibroblasts isolated from the skin of a new born baby were cultured in a 48-well plate type incubator at a concentration of 10^4. After 24 hours, the plate was irradiated by UV-A at 15 J/cm^2. […] At the second day of cultivation, the supernatants were harvested and subjected to ELISA (AP biotech RPN2610) to determine the amount of produced type I collagenase. As the positive control, Wy-14,643 and retinoic acid (RA) were used.

[4] = tested on: Type I Collagenase (MMP-1); experiment: Type I collagenase (MMP-1) biosynthesis with UV-A, TNF-α and antibody against TNF-α (ELISA); type: cell-based, Human
Procedure: Human fibroblasts isolated from the skin of new born baby were cultured in a 48-well plate type incubator at a concentration of 10^4. after 24 hours, the plate was irradiated by UV-A at 15 J/cm^2 and antibody against tumor necrosis factor alpha was added thereto in a concentration of 1 ug/ml. At the second day of cultivation, the supernatants were harvested and subjected to ELISA (AP biotech RPN2610) to determine the amount of produced type I collagenase. The result is shown in Table 15 as comparative values, referred to 100 of control which was not treated.

O=C(O[C@@H]1Cc2c(O)cc(O)cc2O[C@@H]1c1cc(O)c(O)c(O)c1)c1cc(O)c(O)c(O)c1 [EGCG, epigallocatechin gallate]
MMP-2 (%) (MMP-2): 52%
MMP-9 (%) (MMP-9): 56%
Type IV collagen biosynthesis (%) (type IV collagen): 138%
type VII collagen biosynthesis (%) (type VII collagen): 127%
laminin 10/11 biosynthesis (%) (laminin 10/11): 137%
Collagen biosynthesis (pro-collagen; 0.001 μM): 101.4
Collagen biosynthesis (pro-collagen; 0.01 μM): 154.6
Collagen biosynthesis (pro-collagen; 0.1 μM): 133.8
Collagen biosynthesis (pro-collagen; 0.5 μM): 155.8
Collagen biosynthesis (pro-collagen; 2 μM): 78.4
PPAR-α activity ([1]; 10 μM): 1.0
PPAR-α activity ([1]; 100 μM): 1.5
TNF-α biosynthesis (%) [2]: 35%
Type I collagenase biosynthesis (%), UV-A + TNF-α treated group [3]: 88%
Type I collagenase biosynthesis (%), UV-A irradiated group [3]: 42%

TNF-α
type I collagenase, UV-A irradiated group, column headed TNF-α treated group ([4]; UV-A 15 J/cm^2, antibody against TNF-α 1 ug/ml, untreated control = 100 (UV-A without antibody 210)): 134
type I collagenase, TNF-α treated group, No-Antibody treated group ([4]; new born human fibroblasts, untreated control = 100): 250

O=C(O[C@@H]1Cc2c(O)cc(O)cc2O[C@H]1c1cc(O)c(O)c(O)c1)c1cc(O)c(O)c(O)c1 [GCG, gallocatechin gallate]
MMP-2 (%) (MMP-2): 53%
MMP-9 (%) (MMP-9): 56%
Type IV collagen biosynthesis (%) (type IV collagen): 135%
type VII collagen biosynthesis (%) (type VII collagen): 121%
laminin 10/11 biosynthesis (%) (laminin 10/11): 131%
Collagen biosynthesis (pro-collagen; 0.001 μM): 98.9
Collagen biosynthesis (pro-collagen; 0.01 μM): 138.3
Collagen biosynthesis (pro-collagen; 0.1 μM): 147.0
Collagen biosynthesis (pro-collagen; 0.5 μM): 157.1
Collagen biosynthesis (pro-collagen; 2 μM): 75.2
PPAR-α activity ([1]; 100 μM): 2.3
TNF-α biosynthesis (%) [2]: 27%
Type I collagenase biosynthesis (%), UV-A + TNF-α treated group [3]: 86%
Type I collagenase biosynthesis (%), UV-A irradiated group [3]: 43%
